In patent US9695155B2, “Herbicidal substituted pyrimidinyloxy benzene compounds” (E. I. DU PONT DE NEMOURS AND COMPANY, priority 2013, dated 2017):

Key:
[1] = test system: lambsquarters; test: Test D postemergence; assay type: in vivo, Chenopodium album; details: Chenopodium album, post-emergence
In short: (§1)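 Seeds sown in silt loam soil got preemergence sprays; plants in peat/vermiculite potting medium were sprayed postemergence at 2–18 cm (1- to 4-leaf stage). Chemicals were formulated in a non-phytotoxic solvent mixture with surfactant. After 7 to 21 days in a controlled environment, injury was rated visually versus controls, 0 (no effect) to 100 (complete control).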

[2] = test system: galium; test: Test D postemergence; assay type: in vivo, Galium aparine; details: Galium, post-emergence
In short: as §1

[3] = test system: green foxtail; test: Test D preemergence; assay type: in vivo, Setaria viridis; details: Setaria viridis, pre-emergence
In short: as §1

[4] = test system: waterhemp_RES2 (ALS & HPPD resistant common waterhemp); test: Test E postemergence; assay type: in vivo, Amaranthus rudis; details: Amaranthus tuberculatus, post-emergence, read-out: Plant response rating, Waterhemp_RES2
Text: (§2) Seeds of plant species selected from corn (Zea mays), soybean (Glycine max), velvetleaf (Abutilon theophrasti), lambsquarters (Chenopodium album), wild poinsettia (Euphorbia heterophylla), palmer pigweed (Amaranthus palmeri), waterhemp (common waterhemp, Amaranthus rudis), surinam grass (Brachiaria decumbens), large (Lg) crabgrass (Digitaria sanguinalis), Brazilian crabgrass (Digitaria horizontalis), fall panicum (Panicum dichotomiflorum), giant foxtail (Setaria faberii), green foxtail (Setaria viridis), goosegrass (Eleusine indica), johnsongrass (Sorghum halepense), ragweed (common ragweed, Ambrosia elatior), barnyardgrass (Echinochloa crus-galli), sandbur (southern sandbur, Cenchrus echinatus), arrowleaf sida (Sida rhombifolia), Italian ryegrass (Lolium multiflorum), dayflower (Virginia (VA) dayflower, Commelina virginica), field bindweed (Convolvulus arvensis), morningglory (Ipomoea coccinea), nightshade (eastern black nightshade, Solanum ptycanthum), kochia (Kochia scoparia), yellow nutsedge (Cyperus esculentus), cocklebur (common cocklebur, Xanthium strumarium), smartweed (ladysthumb smartweed, and hairy beggarticks (Bidens pilosa), were planted into a silt loam soil and treated preemergence with test chemicals formulated in a non-phytotoxic solvent mixture which included a surfactant.
(§3) At the same time, plants from these crop and weed species and also horseweed (Canada horseweed, Conyza canadensis), waterhemp_RES1, (ALS & Triazine resistant common waterhemp, Amaranthus rudis), and waterhemp_RES2, (ALS & HPPD resistant common waterhemp, Amaranthus rudis) were planted in pots containing Redi-Earth® planting medium (Scotts Company, 14111 Scottslawn Road, Marysville, Ohio 43041) comprising spaghnum peat moss, vermiculite, wetting agent and starter nutrients were treated with postemergence applications of test chemicals formulated in the same manner. Plants ranged in height from 2 to 18 cm for postemergence treatments (1- to 4-leaf stage). Treated plants and controls were maintained in a greenhouse for 14 to 21 days, after which time all species were compared to controls and visually evaluated. Plant response ratings, summarized in Table E, are based on a scale of 0 to 100 where 0 is no effect and 100 is complete control. A dash (-) response means no test result.

[5] = test system: waterhemp; test: Test E postemergence; assay type: in vivo, Amaranthus rudis; details: Amaranthus tuberculatus, post-emergence, read-out: Plant response rating, Waterhemp
Text: as §2, §3

[6] = test system: Italian ryegrass; test: Test D postemergence; assay type: in vivo, Lolium multiflorum; details: Lolium multiflorum, post-emergence
In short: as §1

[7] = test system: chickweed; test: Test D preemergence; assay type: in vivo, Stellaria media; details: Stellaria media, pre-emergence
In short: as §1

[8] = test system: galium; test: Test D preemergence; assay type: in vivo, Galium aparine; details: Galium, pre-emergence
In short: as §1

[9] = test system: fall panicum; test: Test E postemergence; assay type: in vivo, Panicum dichotomiflorum; details: Panicum dichotomiflorum, post-emergence, read-out: Plant response rating, Panicum, Fall
In short: (§4)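 Response was scored visually on a 0-100 scale (100 = complete control) versus controls after 14 to 21 days in the greenhouse. Test chemicals, formulated with surfactant in a non-phytotoxic solvent mixture, had been applied preemergence to seeds in silt loam soil or postemergence to 1- to 4-leaf plants in potting medium.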

[10] = test system: hairy beggarticks; test: Test E postemergence; assay type: in vivo, Bidens pilosa; details: Bidens pilosa, post-emergence, read-out: Plant response rating, Beggarticks
In short: as §4

[11] = test system: barnyardgrass; test: Test E postemergence; assay type: in vivo, Echinochloa crus-galli; details: Echinochloa crus-galli, post-emergence, read-out: Plant response rating, Barnyardgrass
Text: as §2, §3

[12] = test system: dayflower; test: Test E postemergence; assay type: in vivo, Commelina virginica; details: Commelina virginica, post-emergence, read-out: Plant response rating, Dayflower, VA
In short: as §4

[13] = test system: kochia; test: Test D preemergence; assay type: in vivo, Kochia scoparia; details: Bassia scoparia, pre-emergence
In short: as §1

[14] = Postemergence, 31 g ai/ha, scale 0 to 100
[15] = Postemergence, 62 g ai/ha, scale 0 to 100
[16] = Postemergence, 125 g ai/ha, scale 0 to 100
[17] = postemergence, 16 g ai/ha, scale 0 to 100, 0 no effect, 100 complete control
[18] = postemergence, 8 g ai/ha, scale 0 to 100, 0 no effect, 100 complete control

Compound: Clc1cnc(Oc2ccccc2-n2cc(Br)cn2)nc1 [Compound 7, 2-[2-(4-bromo-1H-pyrazol-1-yl)phenoxy]-5-chloropyrimidine]
- pest or weed control at 16 g/ha ([1]; 16 g ai/ha, scale 0-100, read-out: Plant response rating, Lambsquarters): 70%
- pest or weed control at 31 g/ha ([1]; 31 g ai/ha, scale 0 to 100 (0 no effect, 100 complete control), read-out: Plant response rating, Lambsquarters): 70%
- pest or weed control at 62 g/ha ([1]; 62 g ai/ha, scale 0 to 100 (0 no effect, 100 complete control), read-out: Plant response rating, Lambsquarters): 80%
- pest or weed control at 125 g/ha ([1]; 125 g ai/ha, scale 0 to 100 (0 no effect, 100 complete control), read-out: Plant response rating, Lambsquarters): 90%
- pest or weed control at 250 g/ha ([1]; 250 g ai/ha, scale 0 to 100 (0 no effect, 100 complete control), read-out: Plant response rating, Lambsquarters): 100%
- pest or weed control at 16 g/ha ([2]; 16 g ai/ha, scale 0-100, read-out: Plant response rating, Galium): 20%
- pest or weed control at 31 g/ha ([2]; 31 g ai/ha, scale 0 to 100 (0 no effect, 100 complete control), read-out: Plant response rating, Galium): 40%
- pest or weed control at 62 g/ha ([2]; 62 g ai/ha, scale 0 to 100 (0 no effect, 100 complete control), read-out: Plant response rating, Galium): 70%
- pest or weed control at 125 g/ha ([2]; 125 g ai/ha, scale 0 to 100 (0 no effect, 100 complete control), read-out: Plant response rating, Galium): 80%
- pest or weed control at 250 g/ha ([2]; 250 g ai/ha, scale 0 to 100 (0 no effect, 100 complete control), read-out: Plant response rating, Galium): 90%
- pest or weed control at 16 g/ha ([3]; 16 g ai/ha, scale 0 (no effect) to 100 (complete control), read-out: Plant response rating, Foxtail, Green): 0%
- pest or weed control at 31 g/ha ([3]; 31 g ai/ha, scale 0-100, read-out: Plant response rating, Foxtail, Green): 0%
- pest or weed control at 62 g/ha ([3]; 62 g ai/ha, scale 0-100, read-out: Plant response rating, Foxtail, Green): 0%
- pest or weed control at 125 g/ha ([3]; 125 g ai/ha, scale 0-100, read-out: Plant response rating, Foxtail, Green): 0%
- pest or weed control at 250 g/ha ([3]; 250 g ai/ha, scale 0-100, read-out: Plant response rating, Foxtail, Green): 20%
- pest or weed control at 31 g/ha [4, 14]: 80%
- pest or weed control at 62 g/ha [4, 15]: 90%
- pest or weed control at 125 g/ha [4, 16]: 95%
- pest or weed control at 16 g/ha [4, 17]: 75%
- pest or weed control at 31 g/ha [5, 14]: 90%
- pest or weed control at 62 g/ha [5, 15]: 90%
- pest or weed control at 125 g/ha [5, 16]: 90%
- pest or weed control at 8 g/ha [5, 18]: 70%
- pest or weed control at 16 g/ha [5, 17]: 80%
- pest or weed control at 16 g/ha ([6]; 16 g ai/ha, scale 0-100, read-out: Plant response rating, Ryegrass, Italian): 0%
- pest or weed control at 31 g/ha ([6]; 31 g ai/ha, scale 0 to 100 (0 no effect, 100 complete control), read-out: Plant response rating, Ryegrass, Italian): 0%
- pest or weed control at 62 g/ha ([6]; 62 g ai/ha, scale 0 to 100 (0 no effect, 100 complete control), read-out: Plant response rating, Ryegrass, Italian): 0%
- pest or weed control at 125 g/ha ([6]; 125 g ai/ha, scale 0 to 100 (0 no effect, 100 complete control), read-out: Plant response rating, Ryegrass, Italian): 0%
- pest or weed control at 250 g/ha ([6]; 250 g ai/ha, scale 0 to 100 (0 no effect, 100 complete control), read-out: Plant response rating, Ryegrass, Italian): 0%
- pest or weed control at 16 g/ha ([7]; 16 g ai/ha, scale 0 (no effect) to 100 (complete control), read-out: Plant response rating, Chickweed): 0%
- pest or weed control at 31 g/ha ([7]; 31 g ai/ha, scale 0-100, read-out: Plant response rating, Chickweed): 0%
- pest or weed control at 62 g/ha ([7]; 62 g ai/ha, scale 0-100, read-out: Plant response rating, Chickweed): 10%
- pest or weed control at 125 g/ha ([7]; 125 g ai/ha, scale 0-100, read-out: Plant response rating, Chickweed): 90%
- pest or weed control at 250 g/ha ([7]; 250 g ai/ha, scale 0-100, read-out: Plant response rating, Chickweed): 95%
- pest or weed control at 16 g/ha ([8]; 16 g ai/ha, scale 0 (no effect) to 100 (complete control), read-out: Plant response rating, Galium): 0%
- pest or weed control at 31 g/ha ([8]; 31 g ai/ha, scale 0-100, read-out: Plant response rating, Galium): 0%
- pest or weed control at 62 g/ha ([8]; 62 g ai/ha, scale 0-100, read-out: Plant response rating, Galium): 20%
- pest or weed control at 125 g/ha ([8]; 125 g ai/ha, scale 0-100, read-out: Plant response rating, Galium): 30%
- pest or weed control at 250 g/ha ([8]; 250 g ai/ha, scale 0-100, read-out: Plant response rating, Galium): 40%
- pest or weed control at 31 g/ha [9, 14]: 15%
- pest or weed control at 62 g/ha [9, 15]: 50%
- pest or weed control at 125 g/ha [9, 16]: 0%
- pest or weed control at 8 g/ha [9, 18]: 0%
- pest or weed control at 16 g/ha [9, 17]: 0%
- pest or weed control at 31 g/ha [10, 14]: 40%
- pest or weed control at 62 g/ha [10, 15]: 50%
- pest or weed control at 125 g/ha [10, 16]: 60%
- pest or weed control at 8 g/ha [10, 18]: 25%
- pest or weed control at 16 g/ha [10, 17]: 35%
- pest or weed control at 31 g/ha [11, 14]: 0%
- pest or weed control at 62 g/ha [11, 15]: 10%
- pest or weed control at 125 g/ha [11, 16]: 10%
- pest or weed control at 8 g/ha [11, 18]: 0%
- pest or weed control at 16 g/ha [11, 17]: 0%
- pest or weed control at 31 g/ha [12, 14]: 50%
- pest or weed control at 62 g/ha [12, 15]: 70%
- pest or weed control at 125 g/ha [12, 16]: 90%
- pest or weed control at 8 g/ha [12, 18]: 10%
- pest or weed control at 16 g/ha [12, 17]: 40%
- pest or weed control at 16 g/ha ([13]; 16 g ai/ha, scale 0 (no effect) to 100 (complete control), read-out: Plant response rating, Kochia): 0%
- pest or weed control at 31 g/ha ([13]; 31 g ai/ha, scale 0-100, read-out: Plant response rating, Kochia): 0%
- pest or weed control at 62 g/ha ([13]; 62 g ai/ha, scale 0-100, read-out: Plant response rating, Kochia): 0%
- pest or weed control at 125 g/ha ([13]; 125 g ai/ha, scale 0-100, read-out: Plant response rating, Kochia): 0%
- pest or weed control at 250 g/ha ([13]; 250 g ai/ha, scale 0-100, read-out: Plant response rating, Kochia): 70%
